Here are results for 39 compounds from patent US9447083B2, “N-acylhydrazone derivatives for selective T cell inhibitor and anti-lymphoid malignancy drug” (CHONG KUN DANG PHARMACEUTICAL CORP., priority 2012, dated 2016).

The test system of the first experiment is Jurkat T cells. The experiment can be described thus: Pro-apoptotic activity on Jurkat T cells (FITC-Annexin V / 7-AAD flow cytometry). It counts as cell-based. The note with it: Homo sapiens, 72 hours, cells stained with FITC-Annexin V and 7-AAD among total cells, read-out: Cell Apoptosis Effect to Jurkat T Cell (% in 5 μM). On the procedure:
In order to investigate the effects of the prepared compounds, the apoptosis-inducing effects of the compounds on human T cell acute lymphoblastic leukemia cell line, Jurkat T cells, were evaluated in the following manner.
Jurkat T cells cultured in RPMI medium containing 10% fetal bovine serum (FBS) were collected and stained with trypan blue (Sigma). […] Then, the cells were centrifuged at 1200 rpm at room temperature for 5 minutes and re-suspended in 10% FBS-containing RPMI medium at a concentration of 1.5×10^5 cells/mL. 200 μL of the cell suspension was dispensed into each well of a flat bottom 96-well plate (Costar). Then, the cells were treated with 10 μL of the diluted compounds in RPMI medium at final concentrations of […] or 5 μM, and incubated in a 5% CO2 incubator at 37° C. for 72 hours. In a vehicle control group, the cells were treated with 10 μL of RPMI medium containing 1% of dimetylsulfoxide (DMSO, Sigma). The incubated cells were harvested, put into 5-mL FACS tubes (BD Falcon), washed with 1 mL of phosphate buffered saline (PBS), and then re-suspended in 0.1 mL of binding buffer (10 mM Hepes-NaOH, pH 7.4, 140 mM NaCl, […] CaCl2). The suspended cells were stained with fluorescein isothiocyanate (FITC)-Annexin V (BD Biosciences) and 7-amino-actinomycin D (7-AAD, e-Biosciences) at room temperature for 15 minutes. The stained cells were suspended in 0.3 mL of binding buffer and analyzed by a flow cytometer. Apoptosis was determined by the ratio (%) of cells stained with FITC-Annexin V and 7-AAD among the total cells (see Tables 10 and 11).
Consider `Cc1cc(C)c(SCC(=O)N/N=C/c2ccc3cc[nH]c3c2)c(C)c1` [Compound 159, (E)-N′-((1H-indol-6-yl)methylene)-2-(mesitylthio)acetohydrazide], for which the cytotoxicity at 5 µM was found to be 100%.
Regarding `CC(C)c1cccc(C(C)C)c1OCC(=O)N/N=C/c1cccc2[nH]ccc12` [Compound 121, (E)-N′-((1H-indol-4-yl)methylene)-2-(2,6-diisopropylphenoxy)acetohydrazide], the cytotoxicity at 5 µM was found to be 100%.
Turning to `Cc1cc(C)c(NCC(=O)N/N=C/c2c[nH]c3ccccc23)c(C)c1` [Compound 136], the cytotoxicity at 5 µM was determined as 100%.
On the same count and under the same terms, the figure for `Cc1cc(C)c(OCC(=O)N/N=C/c2ccc3snnc3c2)c(C)c1` [Compound 206] is 100%.
The same measure, in the same setting: the same measure for `Cc1ccccc1OCC(=O)N/N=C/c1ccc2[nH]ccc2c1` [Compound 014]: 100%; for `O=C(COc1ccccc1C(F)(F)F)N/N=C/c1cccc2[nH]ccc12` [Compound 192, (E)-N′-((1H-indol-4-yl)methylene)-2-(2-(trifluoromethyl)phenoxy)acetohydrazide]: 90%; for `Cc1cc(C)c(OCC(=O)N/N=C/c2ccc3[nH]cnc3c2)c(C)c1` [Compound 205]: 100%.
`Cc1cc(C)c(OCC(=O)N/N=C/c2ccc3c(Br)c[nH]c3c2)c(C)c1` [Compound 256]: the cytotoxicity at 5 µM turned out to be 100%.
Consider `Cc1cc(-c2cccnc2)cc(C)c1OCC(=O)N/N=C/c1c[nH]c2ccccc12` [Compound 138], for which the cytotoxicity at 5 µM worked out at 90%.
The same measure, in the same setting: the figure for `Cc1cc(C)c(SCC(=O)N/N=C/c2c[nH]c3ccccc23)c(C)c1` [Compound 158, (E)-N′-((1H-indol-3-yl)methylene)-2-(mesitylthio)acetohydrazide] is 100%.
Take `CC(=O)N(/N=C/c1ccc2cc[nH]c2c1)C(=O)COc1c(C)cc(C)cc1C` [Compound 243, (E)-N′-((1H-indol-6-yl)methylene)-N-acetyl-2-(mesityloxy)acetohydrazide]: the cytotoxicity at 5 µM is 100%.
Same read-out and setting: the figure for `Cc1cc(C)c(OCC(=O)N(COC(=O)c2ccc(CN3CCOCC3)cc2)/N=C/c2cccc3[nH]ccc23)c(C)c1` [Compound 245, (E)-(2-((1H-indol-4-yl)methylene)-1-(2-(mesityloxy)acetyl)hydrazinyl)methyl 4-(morpholinomethyl)benzoate] is 100%; for `O=C(COc1ccccc1C(F)(F)F)N/N=C/c1ccc2cc[nH]c2c1` [Compound 194] it is 100%; for `Cc1cc(C)c(OCC(=O)N/N=C/c2cccc3[nH]ccc23)c(-c2cccnc2)c1` [Compound 182, (E)-N′-((1H-indol-4-yl)methylene)-2-(2,4-dimethyl-6-(pyridin-3-yl)phenoxy)acetohydrazide] it is 100%.
Consider `Cc1ccnc(C)c1OCC(=O)N/N=C/c1cccc2[nH]ccc12` [Compound 190, (E)-N′-((1H-indol-4-yl)methylene)-2-(2,4-dimethylpyridin-3-yloxy)acetohydrazide], for which the cytotoxicity at 5 µM stood at 100%.
Still for that read-out and setting: the same measure for `Cc1cc(Cl)cc(C)c1OCC(=O)N/N=C/c1c[nH]c2ccccc12` [Compound 156, (E)-N′-((1H-indol-3-yl)methylene)-2-(4-chloro-2,6-dimethylphenoxy)acetohydrazide]: 90%.
On the same count and under the same terms, the same measure for `Cc1cc(Br)cc(C)c1OCC(=O)N/N=C/c1cccc2[nH]ccc12` [Compound 112, (E)-N′-((1H-indol-4-yl)methylene)-2-(4-bromo-2,6-dimethylphenoxy)acetohydrazide]: 100%; for `Cc1ccccc1OCC(=O)N/N=C/c1ccc2cc[nH]c2c1` [Compound 034]: 90%; for `Cc1ccnc(C)c1OCC(=O)N/N=C/c1ccc2cc[nH]c2c1` [Compound 191]: 100%.
`Cc1cc(C)c(OCC(=O)N(COC(=O)CN(C)C)/N=C/c2cccc3[nH]ccc23)c(C)c1` [Compound 238, (E)-(2-((1H-indol-4-yl)methylene)-1-(2-(mesityloxy)acetyl)hydrazinyl)methyl 2-(dimethylamino)acetate]: the cytotoxicity at 5 µM amounted to 100%.
Turning to `Cc1cc(Cl)cc(C)c1OCC(=O)N/N=C/c1cccc2[nH]ccc12` [Compound 155, (E)-N′-((1H-indol-4-yl)methylene)-2-(4-chloro-2,6-dimethylphenoxy)acetohydrazide], the cytotoxicity at 5 µM is 100%.
For `Cc1cc(C)c(OCC(=O)N(CCO)/N=C/c2cccc3[nH]ccc23)c(C)c1` [Compound 177, (E)-N′-((1H-indol-4-yl)methylene)-N-(2-hydroxyethyl)-2-(mesityloxy)acetohydrazide], the cytotoxicity at 5 µM amounted to 100%.
Regarding `Cc1cc(Br)cc(C)c1OCC(=O)N/N=C/c1ccc2cc[nH]c2c1` [Compound 133, (E)-N′-((1H-indol-6-yl)methylene)-2-(4-bromo-2,6-dimethylphenoxy)acetohydrazide], the cytotoxicity at 5 µM was determined as 100%.

Still in this experiment, the particulars now being: Homo sapiens, 72 hours, cells stained with FITC-Annexin V and 7-AAD among total cells, read-out: Jurkat T Cell Apoptosis (% in 5 μM).
On to `Cc1cc(F)cc(C2CCOC2)c1OCC(=O)N/N=C/c1cccc2[nH]ccc12` (stereo not drawn) [Compound 379, (E)-N′-((1H-indol-4-yl)methylene)-2-(4-fluoro-2-methyl-6-(tetrahydrofuran-3-yl)phenoxy)acetohydrazide], for which the cytotoxicity at 5 µM turned out to be 100%.
Turning to `Cc1cc(C2CCOC2)cc(C)c1OCC(=O)N/N=C/c1cccc2[nH]ccc12` (stereo not drawn) [Compound 337, (E)-N′-((1H-indol-4-yl)methylene)-2-(2,6-dimethyl-4-(tetrahydrofuran-3-yl)phenoxy)acetohydrazide], the cytotoxicity at 5 µM came to 100%.
On to `COc1ccc(OCC(=O)N/N=C/c2ccc3cc[nH]c3c2)c(-c2ccco2)c1` [Compound 347], for which the cytotoxicity at 5 µM came out at 100%.
Turning to `Cc1cccc(C2CCOC2)c1OCC(=O)N/N=C/c1ccc2cc[nH]c2c1` (stereo not drawn) [Compound 311, (E)-N′-((1H-indol-6-yl)methylene)-2-(2-methyl-6-(tetrahydrofuran-3-yl)phenoxy)acetohydrazide], the cytotoxicity at 5 µM is 100%.
With `CCc1nc(C)ccc1OCC(=O)N/N=C/c1ccc2cc[nH]c2c1` [Compound 293, (E)-N′-((1H-indol-6-yl)methylene)-2-(2-ethyl-6-methylpyridin-3-yloxy)acetohydrazide], the cytotoxicity at 5 µM was determined as 100%.
Take `Cc1ncccc1OCC(=O)N/N=C/c1ccc2cc[nH]c2c1` [Compound 304, (E)-N′-((1H-indol-6-yl)methylene)-2-((2-methylpyridin-3-yl)oxy)acetohydrazide]: the cytotoxicity at 5 µM was 90%.
On to `Cc1cc(OCC(=O)N/N=C/c2cccc3[nH]ccc23)cc(C)n1` [Compound 286, (E)-N′-((1H-indol-4-yl)methylene)-2-(2,6-dimethylpyridin-4-yloxy)acetohydrazide], for which the cytotoxicity at 5 µM came out at 100%.
Turning to `Cc1cc(C)c(OCC(=O)N/N=C/c2cccc3[nH]ccc23)c(-c2ccco2)c1` [Compound 317, (E)-N′-((1H-indol-4-yl)methylene)-2-(2-(furan-2-yl)-4,6-dimethylphenoxy)acetohydrazide], the cytotoxicity at 5 µM is 100%.
Still for that read-out and setting: the figure for `Cc1cc(C)c(OCC(=O)N/N=C/c2cccc3[nH]ccc23)c(-c2ccoc2)c1` [Compound 333, (E)-N′-((1H-indol-4-yl)methylene)-2-(2-(furan-3-yl)-4,6-dimethylphenoxy)acetohydrazide] is 100%; for `Cc1cc(F)ccc1OCC(=O)N/N=C/c1ccc2cc[nH]c2c1` [Compound 291, (E)-N′-((1H-indol-6-yl)methylene)-2-(4-fluoro-2-methylphenoxy)acetohydrazide] it is 100%; for `Cc1cc(OCC(=O)N/N=C/c2ccc3cc[nH]c3c2)cc(C)n1` [Compound 288] it is 90%.
Turning to `Cc1cc(C)c(OCC(=O)N/N=C/c2ccc3cc[nH]c3c2)c(-c2ccco2)c1` [Compound 318], the cytotoxicity at 5 µM was found to be 100%.
With `O=C(COc1cccnc1-c1ccoc1)N/N=C/c1ccc2cc[nH]c2c1` [Compound 310, (E)-N′-((1H-indol-6-yl)methylene)-2-(2-(furan-3-yl)pyridin-3-yloxy)acetohydrazide], the cytotoxicity at 5 µM worked out at 100%.
The same measure, in the same setting: the figure for `O=C(COc1cccc(-c2cccnc2)c1)N/N=C/c1cccc2[nH]ccc12` [Compound 358, (E)-N′-((1H-indol-4-yl)methylene)-2-(3-(pyridin-3-yl)phenoxy)acetohydrazide] is 100%; for `Cc1cc(C)c(OCC(=O)N/N=C/c2cccc3c2ccn3S(=O)(=O)c2ccccc2)c(C)c1` [Compound 280, (E)-2-(mesityloxy)-N′-((1-(phenylsulfonyl)-1H-indol-4-yl)methylene)acetohydrazide] it is 100%.
Consider `Cc1cc(C)c(OCC(=O)N/N=C/c2ccc3cc[nH]c3c2)c(C2CCCO2)c1` (stereo not drawn) [Compound 332, (E)-N′-((1H-indol-6-yl)methylene)-2-(2,4-dimethyl-6-(tetrahydrofuran-2-yl)phenoxy)acetohydrazide], for which the cytotoxicity at 5 µM was 100%.
